Data from ChEMBL document CHEMBL1123967, “New potent antagonists of leukotrienes C4 and D4. 1. Synthesis and structure-activity relationships” (J Med Chem, 1988).

Experiments:
Cavia porcellus [1] = assay: Inhibition of LTE4 induced bronchoconstriction in guinea pig at dose of 1 ug/kg given intravenously; format: functional; details: iv, read-out: ID50 (the source's name)
Cavia porcellus [2] = assay: Inhibition of LTB4 induced bronchoconstriction in guinea pig at dose of 3 ug/kg given intravenously; format: functional; details: iv, read-out: ID50 (the source's name)
Cavia porcellus [3] = assay: Inhibition of LTD4 induced bronchoconstriction in guinea pig at dose of (0.5 ug/kg) given intravenously; format: functional; details: iv, read-out: ID50 (the source's name)
[4] = target: T1, Cysteinyl leukotriene receptor (Homo sapiens, UniProt Q9Y271+Q9NS75); assay: Inhibition of LTC4 induced smooth muscle contraction of guinea pig ileum; format: functional, tissue-based, Cavia porcellus; details: target entry is the homologue from another species
T1 sequence (Q9Y271 whole entry): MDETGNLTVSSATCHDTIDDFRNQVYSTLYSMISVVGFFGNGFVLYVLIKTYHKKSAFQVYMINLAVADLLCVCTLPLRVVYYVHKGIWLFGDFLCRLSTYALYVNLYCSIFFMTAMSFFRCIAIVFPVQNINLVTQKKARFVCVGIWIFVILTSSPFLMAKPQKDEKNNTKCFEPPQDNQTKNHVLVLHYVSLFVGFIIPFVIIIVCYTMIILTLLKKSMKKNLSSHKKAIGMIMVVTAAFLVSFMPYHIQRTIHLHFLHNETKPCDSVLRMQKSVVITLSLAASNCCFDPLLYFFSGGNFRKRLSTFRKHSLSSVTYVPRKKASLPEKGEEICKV
T1 sequence (Q9NS75 whole entry): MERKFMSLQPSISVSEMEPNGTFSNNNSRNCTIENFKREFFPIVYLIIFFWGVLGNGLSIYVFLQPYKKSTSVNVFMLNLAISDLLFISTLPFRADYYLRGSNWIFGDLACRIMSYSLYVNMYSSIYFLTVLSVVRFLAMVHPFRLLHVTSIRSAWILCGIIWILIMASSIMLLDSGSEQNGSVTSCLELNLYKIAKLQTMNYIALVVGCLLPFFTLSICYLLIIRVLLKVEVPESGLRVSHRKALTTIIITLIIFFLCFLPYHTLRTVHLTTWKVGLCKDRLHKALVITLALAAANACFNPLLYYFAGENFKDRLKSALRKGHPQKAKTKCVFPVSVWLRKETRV

Cavia porcellus [5] = assay: Inhibition of LTD4 (5 ng/site) induced vascular permeability in guinea pig skin at dose 30 mg/kg given perorally; format: functional; details: route oral
Cavia porcellus [6] = assay: Inhibition of LTC4 induced bronchoconstriction in guinea pig at dose of (0.5 ug/kg) given intravenously; format: functional; details: iv, read-out: ID50 (the source's name)
[7] = target: Cysteinyl leukotriene receptor (Homo sapiens) (UniProt Q9Y271+Q9NS75); assay: In vivo inhibition of LTD4-induced bronchoconstriction in anesthetized guinea pig.; format: functional, organism-based; details: Cavia porcellus; target entry is the homologue from another species
Cavia porcellus [8] = assay: Inhibition of LTD4 (5 ng/site) induced vascular permeability in guinea pig skin at dose 10 mg/kg given perorally; format: functional; details: route oral
Cavia porcellus [9] = assay: Inhibition of LTC4-induced bronchoconstriction in guinea pig at dose of (0.5 ug/kg) given intravenously; format: functional; details: iv, read-out: ID50 (the source's name)
Cavia porcellus [10] = assay: Inhibition of LTD4 (5 ng/site) induced vascular permeability in guinea pig skin at dose 0.3 mg/kg given perorally; format: functional; details: route oral
Cavia porcellus [11] = assay: Inhibition of LTE4-induced bronchoconstriction in guinea pig at dose of (1 ug/kg) given intravenously; format: functional; details: iv, read-out: ID50 (the source's name)
Cavia porcellus [12] = assay: Inhibition of LTD4-induced bronchoconstriction in guinea pig in guinea pig at dose of (0.5 ug/kg) given intravenously; format: functional; details: iv, read-out: ID50 (the source's name)
Cavia porcellus [13] = assay: Inhibition of LTD4 (5 ng/site) induced vascular permeability in guinea pig skin at dose 1 mg/kg given perorally; format: functional; details: route oral
Cavia porcellus [14] = assay: Inhibition of LTD4-induced bronchoconstriction in guinea pig at dose of (0.5 ug/kg) given intravenously; format: functional; details: iv, read-out: ID50 (the source's name)
Cavia porcellus [15] = assay: Inhibition of LTB4 induced bronchoconstriction in guinea pig at dose of (1 ug/kg) given intravenously; format: functional; details: iv, read-out: ID50 (the source's name)

IC50 [4] | ID50 [7] | SMILES | ED50 (Cavia porcellus [2]) | inhibition in vivo at 30 mg/kg (Cavia porcellus [5]) | inhibition in vivo at 10 mg/kg (Cavia porcellus [8]) | ED50 (Cavia porcellus [9]) | inhibition in vivo at 0.3 mg/kg (Cavia porcellus [10]) | ED50 (Cavia porcellus [11]) | inhibition in vivo at 1 mg/kg (Cavia porcellus [13]) | other results
0.37 nM | 1.2 µg/kg | O=C(Nc1cccc2c1OC(c1nnn[nH]1)CO2)c1ccc(OCCCCc2ccccc2)cc1 (stereo unspecified) | > 500 µg/kg | 63.2% | 61.8% | – | – | – | – | ED50 (Cavia porcellus [1]): 2 µg/kg; ED50 (Cavia porcellus [3]): 4.4 µg/kg; ED50 (Cavia porcellus [6]): 1.1 µg/kg
– | 0.8 µg/kg | O=C(Nc1cccc2c(=O)cc(-c3nnn[nH]3)oc12)c1ccc(OCCCCc2ccccc2)cc1 | > 500 µg/kg | – | – | 0.8 µg/kg | 74.7% | 0.7 µg/kg | 75.2% | ED50 (Cavia porcellus [12]): 1 µg/kg
0.06 nM | 0.72 µg/kg | CCCCC/C=C/COc1ccc(C(=O)Nc2cccc3c(=O)cc(-c4nn[nH]n4)oc23)cc1 | – | – | – | – | – | – | 25% | –
2 nM | 2 µg/kg | CCCCC/C=C/COc1ccc(C(=O)Nc2cccc3c2OC(c2nnn[nH]2)CO3)cc1 (stereo unspecified) | – | < 43.8% | 30.4% | – | – | – | – | –
– | 500 µg/kg | CCCc1c(OCC(O)COc2ccc3c(=O)cc(C(=O)[O-])oc3c2CCC)ccc(C(C)=O)c1O.[Na+] (stereo unspecified) [FPL-55712 SODIUM SALT] | – | – | – | 155 µg/kg | – | 211 µg/kg | – | ED50 (Cavia porcellus [14]): 440 µg/kg; ED50 (Cavia porcellus [15]): > 500 µg/kg
0.11 nM | 1.9 µg/kg | C=CCCCCCCOc1ccc(C(=O)Nc2cccc3c(=O)cc(-c4nn[nH]n4)oc23)cc1 | – | – | – | – | < 46.7% | – | < 60.7% | –
